Results: patent publication US12036190B2, “Methods and compositions for the treatment of cytoplasmic glycogen storage disorders” (Duke University, priority 2015, dated 2024)
“And” between values parts separate entries of the source, which are not always exact repeats. Identical values can stand only once. “Also recorded” adds a separate entry of the source. Values belong to the molecule of their own block, whether it stands above or below them.

Experiments:
[1] = tested on: G6pc−/− mice; test: Rapamycin treatment of GSD Ia (G6pc−/−) mice; assay type: in vivo; conditions: GSD Ia mouse livers, which began at 7-fold the levels of wildtype livers
Method: Candidate drugs for restoring autophagy in the GSD Ia liver were evaluated. Rapamycin is known to both have potent effects on activating autophagy as an mTORC1 inhibitor, and to regulate lipid metabolism due to its effect upon mTORC1. GSD Ia mice were treated with rapamycin daily for 7 days prior to evaluating effects upon autophagy and lipid accumulation in the liver.
G6pc−/− mice were given intraperitoneal injections of 5 mg/kg rapamycin suspended in 10% DMSO/90% PBS daily for 7 days starting on day 5 of life.
Treatment was sufficient to normalize G6pc−/− mice to the naturally low WT triglyceride levels.
Hepatic glycogen content was further analyzed using PAS staining to stain for polysaccharides, including glycogen, in liver sections. […] This confirms our hypothesis that manipulating autophagy can reduce glycogen accumulation by breaking it down through alternate routes from the traditional one relying on G6Pase, bypassing the need for G6Pase in GSD Ia hepatocytes.

[2] = tested on: primary myoblasts from GSD IV mice; test: rhGAA on primary myoblasts from GSD IV mice; assay type: cell-based, mouse
Method: Primary myoblast cells were isolated from 7-day-old GSD IV mouse skeletal muscle. Early passage cells were seeded in 10-cm culture dishes with EMEM medium containing 10% FBS. When cells reached 90% confluence, rhGAA was added to the culture medium (final activity=1000 nmol/hr/ml). […]
Reduction of glycogen deposition in GSD IV mouse myoblasts by rhGAA treatment was also confirmed by immunofluorescence staining using a mouse anti-glycogen monoclonal antibody ESG1A9mAb.

[3] = tested on: GSD III mice; test: rhGAA enzyme replacement therapy in GSD III mice; assay type: in vivo, mouse
Method: (§1) Methods: GSD III mice were used to test 3 dosages to determine the minimum effective dose (MED) of rhGAA treatment: 20 mg/kg (n=6), 40 mg/kg (n=5), and 100 mg/kg (n=7). Weekly intravenous injections of rhGAA were conducted for 4 week starting at age of 10 weeks. A group of age-matched untreated mice (n=8) were used as controls. To prevent anaphylactic reactions, the animals were administered 25 mg/kg diphenhydramine (i.p.) 10-15 min prior to enzyme administration. All mice were sacrificed 48 hours after the last injection following overnight fasting. Fresh tissues were immediately frozen and stored at −80° C. until use for GAA activity and glycogen content analyses. Protein concentration was measured using BCA method.

[4] = tested on: GSD IV mice; test: rhGAA enzyme replacement therapy in GSD IV mice; assay type: in vivo, mouse
Method: as §1, with “A short-term study was conducted” for “GSD III mice were used to test 3 dosages”, “treatment with 3 dosages:” for “treatment:”, “(human equivalent dose, n=6),” for “(n=6),”, “(n=9),” for “(n=5),”, “(n=8). Male GSD IV mice received weekly” for “(n=7). Weekly”

[5] = tested on: patient with PRKAG2 pathogenic gene mutation; test: Alglucosidase alfa ERT in a patient with PRKAG2 mutation; assay type: in vivo, human
From the text: A patient was born by caesarian section at 38 weeks gestation as a result of the nuchal cord being wrapped around their neck. The patient was noted to have hypotonia and generalized muscle weakness. They were are flexic and had feeding difficulties. The patient began developing severe lower respiratory infections which led to frequent admissions to the hospital. […] Following numerous recurrent pneumonias, and the history of muscle weakness, the patient's physicians raised Pompe disease as a potential diagnosis. […] Given the early findings of hypotonia and the low GAA enzyme activity, a diagnosis of non-classic infantile Pompe disease was made. The patient was initiated on ERT with alglucosdase alfa at a dose of 20 mg/kg every 2 weeks.
[…], the patient started ERT. They were belly crawling asymmetrically and was unable to achieve sitting from a prone or supine position. Due to weakness in their neck and trunk flexors, the patient consistently sat with their trunk completely collapsed in kyphotic position and their head propped up in capital extension in a chin poke position. […] They were able to crawl more efficiently, to achieve sitting independently from a prone or supine position, and to pull themself up into a standing posture without aid. […] […], the patient was able to walk independently with an age appropriate gait pattern and to climb small steps as well as jump off them without support. They were also able to transition independently into and out of any position, which helped them participate more fully in activities appropriate for their age.
Baseline assessments were done which included tests for AST (44 IU/L; normal range: <45 IU/L), ALT (20 IU/L; normal range: 9-80 IU/L), along with PT measures looking at muscle strength and function measures. […] Upon examination, the patient has developed more defined calf muscles, along with an improvement of […] strength and power. […] has grown physically stronger and has not had episodes in which […] lacks energy for consecutive days, becomes completely floppy, and is unable to hold their head up properly following a seizure.
At baseline, according to the MABC assessment, the patient achieved a Total Test Score of 68 ranking them in the 25th percentile. Five months after reinitiation of ERT, the patient achieved a Total Test Score of 73 on […] MABC assessment, ranking them in the 37th percentile. A minimal detectable change (MDC) for the MABC has been reported as 1.21 points, representing a true change in motor function. The results in this child show an increase of 5 points over 5 months, which is greater than the minimal important difference (MID) of the MABC, which has been reported as a change of 2.5 points shown over 6 months.

[6] = tested on: primary muscle cells from GSD IIIa patients; test: rhGAA on primary muscle cells from GSD IIIa patients; assay type: cell-based, human; conditions: GSD IIIa patient muscle cells
Method: FIG. 32 illustrates an analysis of the skeletal muscle biopsies from two GSD IIIa patients, a person (Pt. 1) and a person (Pt. 2). […] (FIG. 32B) Under EM, occasional lysosomal glycogen 1 (identified at the end of arrow) was also seen in the myocytes (scale bar=1 μm). […] (FIG. 32E) GAA activity in normal and patient cells 48 h after adding recombinant human acid alpha-glucosidase (rhGAA, Myozyme*, alglucosidase alfa) treatment. […] The significance of differences between two different groups was assessed using the two-tailed, equal variance student T-test ([…]).

[7] = rhGAA 1000 nmol/hr/ml, 24 hours
[8] = weekly for 4 weeks at 20, 40 or 100 mg/kg, data not shown
[9] = reassessment 5 months post ERT, initial 3

Molecule: CO[C@H]1C[C@@H]2CC[C@@H](C)[C@@](O)(O2)C(=O)C(=O)N2CCCC[C@H]2C(=O)O[C@H]([C@H](C)C[C@@H]2CC[C@@H](O)[C@H](OC)C2)CC(=O)[C@H](C)/C=C(\C)[C@@H](O)[C@@H](OC)C(=O)[C@H](C)C[C@H](C)/C=C/C=C/C=C/1C [Rapamycin, rapamycin]
reduction of hepatic triglycerides [1]: 50%

decrease of liver glycogen ([3]; 40 mg and 100 mg treatment): 24-25%
GAA enzyme uptake, order of GAA activity by tissue ([3]; weekly IV for 4 weeks): liver>heart>diaphragm>leg muscles
GAA activity in heart, increase ([4]; 20 mg/kg): 1.7 fold
GAA activity in liver, increase over untreated controls ([4]; 20 mg/kg weekly IV for 4 weeks): 29 folds
decrease of liver glycogen ([4]; 40 mg and 100 mg treatment): 21-25%
GAA activity in heart, increase ([4]; 40 mg/kg): 2.8 fold
change of glycogen content in liver ([4]; 40 mg/kg): −21%
GAA activity in liver, increase over untreated controls ([4]; 40 mg/kg weekly IV for 4 weeks): 48 folds
GAA activity in skeletal muscles, increase ([4]; 100 mg/kg): 1.6 folds
change of glycogen content in liver ([4]; 100 mg/kg): −25%
GAA activity in liver, increase over untreated controls ([4]; 100 mg/kg weekly IV for 4 weeks): 67 folds
GAA activity in quadriceps, increase ([4]; either dosage (20, 40 mg/kg)): negligible
GAA activity in gastrocnemius, increase ([4]; either treated group (20, 40 mg/kg)): less than 1 fold
Molecule: rhGAA: recombinant human acid alpha-glucosidase (rhGAA, Myozyme, alglucosidase alfa), FDA approved therapy for Pompe disease
reduction of glycogen (immunofluorescence, ESG1A9mAb) ([2]; 4 hours): obvious
reduction of glycogen (immunofluorescence, ESG1A9mAb) ([2]; 24 hours): more evident
decrease of glycogen content [2, 7]: 24%
increase of GAA activity [2, 7]: 50%
glycogen content ([2]; versus untreated cells): significantly reduced glycogen content; also recorded: significantly (p<0.01) reduced
glycogen content in tissues ([3]; 20 mg treatment): did not affect glycogen content in any tissues
glycogen content in heart ([3]; 40 mg and 100 mg treatments): significantly reduced glycogen contents
glycogen content in liver ([3]; 40 mg and 100 mg treatments): significantly reduced glycogen contents
ratio of liver/body weight ([3]; 40 mg and 100 mg treatments): reduced ratio of liver/body weight
anti-GAA antibodies compared with those reported in GAA-KO mice [3, 8]: significantly less
glycogen content in tissues ([4]; 20 mg/kg): failed to reduce glycogen in any tissue; also recorded: not significant
liver/body weight ratio ([4]; 40 mg/kg, untreated 5.8±0.2%, p<0.05): 5.0±0.2%
plasma alanine aminotransferase (ALT) ([4]; 40 mg/kg, untreated 1029±87 U/L, p<0.01): 650±32 U/L
plasma aspartate aminotransferase (AST) ([4]; 40 mg/kg, untreated 1059±93 U/L, p=0.074): 849±50 U/L
glycogen content in skeletal muscle ([4]; 40 and 100 mg/kg): not in any skeletal muscle
anti-GAA antibodies compared with those reported in GAA-KO mice [4, 8]: significantly less
neurological, occupational therapy and physical therapy reports ([5]; after five months of reinitiated ERT): significant improvement
gross motor abilities ([5]; first ERT course, 20 mg/kg every 2 weeks, three months after initiation): began improving
Movement ABC increase of Total Score ([5]; over 5 months of ERT): 5 points
Movement ABC percentile increase ([5]; over 5 months of ERT): 12
Movement ABC Percentile ([5]; re-assessment 5 months on ERT, pre-ERT 25th percentile): 37 percentile and 37th percentile
Movement ABC Total Score ([5]; re-assessment 5 months on ERT, pre-ERT 68): 73
M-FUN Fine Motor Scaled Score [5, 9]: 5 (considered mild/borderline
M-FUN Gross Motor Scaled Score [5, 9]: 3 (considered very low/severe
M-FUN Visual Motor Scaled Score ([5]; reassessment 5 months post ERT, initial 6): 9 (considered “average” or
M-FUN Gross Motor Progress Score ([5]; reassessment 5 months post ERT, initial 288): 407
M-FUN Fine Motor Progress Score ([5]; reassessment 5 months post ERT, initial 292): 394
M-FUN Visual Motor Progress Score ([5]; reassessment 5 months post ERT, initial 374): 496
fatigue at assessment ([5]; reassessment at five months of ERT): less fatigue
glycogen content [6]: significantly reduced glycogen levels; also recorded: significantly reduced glycogen content; also recorded: significantly reduced glycogen concentration
